Tested on: KRAS PDC multicell spheroid viability
Experiment: Anticancer human tumor 825966-067-R-J1-PDC patient-derived colon carcinoma cell line growth inhibition [KRAS2]
Details: for IC50: curve of first compound; for viability, T/C: stronger effect = lower value
In short: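 KRAS-mutant tumor cells were grown as spheroids with HUVEC endothelial cells and human MSCs as stroma. Targeted agents were tested alone and with KRAS pathway inhibitors. Doses started at or near clinical Cmax, or 10 microM, descending half-log.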
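Also: spheroids exposed to compounds for 7 days.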
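For viability, T/C in this document: 100% = DMSO vehicle control viability.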

SMILES: CC1OCC2(CCN(c3cnc(Sc4ccnc(N)c4Cl)c(N)n3)CC2)C1N (stereo not given) + CNCc1ccccc1-c1csc(C(C)Nc2nc(C)nc3cc(OC)c(OC)cc23)c1
- IC50 (second compound 0.1 µM): 7.62 µM
- IC50 (second compound 0.316 µM): 6.9 µM
- IC50 (second compound 1 µM): 6.71 µM
- IC50 (second compound 3.16 µM): 1.14 µM
- IC50 (second compound 10 µM): < 0.0316 µM
- viability, T/C (second compound 0.1 µM, first compound 0.0316 µM): 109%
- viability, T/C (second compound 0.1 µM, first compound 0.1 µM): 107%
- viability, T/C (second compound 0.1 µM, first compound 0.316 µM): 101%
- viability, T/C (second compound 0.1 µM, first compound 1 µM): 94.3%
- viability, T/C (second compound 0.1 µM, first compound 3.16 µM): 101%
- viability, T/C (second compound 0.1 µM, first compound 10 µM): 34.4%
- viability, T/C (second compound 0.316 µM, first compound 0.0316 µM): 84.8%
- viability, T/C (second compound 0.316 µM, first compound 0.1 µM): 107%
- viability, T/C (second compound 0.316 µM, first compound 0.316 µM): 107%
- viability, T/C (second compound 0.316 µM, first compound 1 µM): 88%
- viability, T/C (second compound 0.316 µM, first compound 3.16 µM): 105%
- viability, T/C (second compound 0.316 µM, first compound 10 µM): 26.8%
- viability, T/C (second compound 1 µM, first compound 0.0316 µM): 113%
- viability, T/C (second compound 1 µM, first compound 0.1 µM): 99.9%
- viability, T/C (second compound 1 µM, first compound 0.316 µM): 94.4%
- viability, T/C (second compound 1 µM, first compound 1 µM): 96.4%
- viability, T/C (second compound 1 µM, first compound 3.16 µM): 109%
- viability, T/C (second compound 1 µM, first compound 10 µM): 22.1%
- viability, T/C (second compound 3.16 µM, first compound 0.0316 µM): 96.4%
- viability, T/C (second compound 3.16 µM, first compound 0.1 µM): 36.9%
- viability, T/C (second compound 3.16 µM, first compound 0.316 µM): 92.7%
- viability, T/C (second compound 3.16 µM, first compound 1 µM): 30%
- viability, T/C (second compound 3.16 µM, first compound 3.16 µM): 49.9%
- viability, T/C (second compound 3.16 µM, first compound 10 µM): 0.35%
- viability, T/C (second compound 10 µM, first compound 0.0316 µM): 0.28%
- viability, T/C (second compound 10 µM, first compound 0.1 µM): 0.27%
- viability, T/C (second compound 10 µM, first compound 0.316 µM): 0.35%
- viability, T/C (second compound 10 µM, first compound 1 µM): 0.24%
- viability, T/C (second compound 10 µM, first compound 3.16 µM): 0.22%
- viability, T/C (second compound 10 µM, first compound 10 µM): 0.25%

Source: PubChem BioAssay AID1963865 (Molecular Pharmacology Branch, DTP, NCI, 2024)
